We go through 25 substances from the OligoGym collection.

In this data set the target is ATXN3. Nature of the data set: mouse, dose not given. The conditions noted are these: ASO.

HELM strings list units from the 5' end as sugar, base in round brackets, then linkage (d deoxyribose, r ribose, m 2'-O-methyl, p phosphodiester). Strings are as the collection lists them; they lack the last nucleoside at the 3' end of the tested compound. [moe] = 2'-O-(2-methoxyethyl) (MOE); [sp] = phosphorothioate linkage; [m5C] = 5-methylcytosine

“RNA1{[moe](T)[sp].[moe](G)p.[moe](G)p.[moe]([m5C])p.[moe](A)p.[moe]([m5C])p.d(A)[sp].d(T)[sp].d(T)[sp].d(T)[sp].d(T)[sp].d(T)[sp].d(T)[sp].d(A)[sp].d(T)[sp].d(A)[sp].[moe](G)p.[moe](A)[sp].[moe](G)}$$$$ (last 3' nucleoside missing)” returned a 3 h FOB score of 2.75 score 0-7.

As for “RNA1{[moe](T)[sp].[moe](G)p.[moe](G)p.[moe]([m5C])p.[moe](A)p.d([m5C])[sp].d(A)[sp].d(T)[sp].d(T)[sp].d(T)[sp].d(T)[sp].d(T)[sp].d(T)[sp].d(A)[sp].d(T)[sp].[moe](A)p.[moe](G)p.[moe](A)[sp].[moe](G)}$$$$ (last 3' nucleoside missing)”, the 3 h FOB score stood at 2.5 score 0-7.

“RNA1{[moe](T)[sp].[moe](G)p.[moe](T)p.[moe](A)p.[moe]([m5C])[sp].d(A)[sp].d([m5C])[sp].d(T)[sp].d(T)[sp].d(T)[sp].d(T)[sp].d(A)[sp].d([m5C])[sp].d(A)[sp].d(T)[sp].[moe](T)p.[moe]([m5C])p.[moe]([m5C])[sp].[moe]([m5C])}$$$$ (last 3' nucleoside missing)” yielded a 3 h FOB score of 1 score 0-7.

With “RNA1{[moe](T)[sp].[moe](G)p.[moe](T)p.[moe](T)p.[moe](A)[sp].d(A)[sp].d(T)[sp].d(A)[sp].d([m5C])[sp].d(T)[sp].d(T)[sp].d(T)[sp].d(T)[sp].d(T)[sp].d([m5C])[sp].[moe]([m5C])p.[moe](A)p.[moe](G)[sp].[moe]([m5C])}$$$$ (last 3' nucleoside missing)”, the 3 h FOB score is 0 score 0-7.

Regarding “RNA1{[moe](T)[sp].[moe](G)p.[moe](T)p.[moe](T)p.[moe](A)p.d(A)[sp].d(T)[sp].d(A)[sp].d([m5C])[sp].d(T)[sp].d(T)[sp].d(T)[sp].d(T)[sp].d(T)[sp].d([m5C])[sp].[moe]([m5C])p.[moe](A)p.[moe](G)[sp].[moe]([m5C])}$$$$ (last 3' nucleoside missing)”, the 3 h FOB score was found to be 1 score 0-7.

“RNA1{[moe](T)[sp].[moe](G)p.[moe](T)p.[moe](T)p.[moe]([m5C])[sp].d(A)[sp].d(T)[sp].d(A)[sp].d(T)[sp].d([m5C])[sp].d([m5C])[sp].d(T)[sp].d(T)[sp].d(T)[sp].d(A)[sp].[moe](A)p.[moe]([m5C])p.[moe]([m5C])[sp].[moe]([m5C])}$$$$ (last 3' nucleoside missing)” yielded a 3 h FOB score of 0 score 0-7.

For the substance “RNA1{[moe](T)[sp].[moe](G)p.[moe]([m5C])p.[moe](A)p.[moe]([m5C])[sp].d(A)[sp].d([m5C])[sp].d(T)[sp].d(T)[sp].d(T)[sp].d([m5C])[sp].d([m5C])[sp].d(T)[sp].d([m5C])[sp].d([m5C])[sp].[moe](T)p.[moe]([m5C])p.[moe](A)[sp].[moe](A)}$$$$ (last 3' nucleoside missing)”, the 3 h FOB score was determined as 0.5 score 0-7.

Regarding “RNA1{[moe](T)[sp].[moe](G)p.[moe]([m5C])p.[moe](T)p.[moe](T)[sp].d(T)[sp].d(T)[sp].d([m5C])[sp].d(A)[sp].d(T)[sp].d(A)[sp].d([m5C])[sp].d([m5C])[sp].d(A)[sp].d(G)[sp].[moe](G)p.[moe](T)p.[moe]([m5C])[sp].[moe](T)}$$$$ (last 3' nucleoside missing)”, the 3 h FOB score was 0.25 score 0-7.

In the case of “RNA1{[moe](T)[sp].[moe](G)p.[moe]([m5C])p.[moe](T)p.[moe](T)p.d(T)[sp].d(T)[sp].d([m5C])[sp].d(A)[sp].d(T)[sp].d(A)[sp].d([m5C])[sp].d([m5C])[sp].d(A)[sp].d(G)[sp].[moe](G)p.[moe](T)p.[moe]([m5C])[sp].[moe](T)}$$$$ (last 3' nucleoside missing)”, the 3 h FOB score worked out at 1.25 score 0-7.

“RNA1{[moe](T)[sp].[moe](G)p.[moe]([m5C])p.[moe](T)p.[moe]([m5C])[sp].d(A)[sp].d(T)[sp].d(T)[sp].d(T)[sp].d(A)[sp].d(T)[sp].d(T)[sp].d([m5C])[sp].d(T)[sp].d([m5C])[sp].[moe](A)p.[moe](A)p.[moe](G)[sp].[moe](T)}$$$$ (last 3' nucleoside missing)”: the 3 h FOB score worked out at 0 score 0-7.

“RNA1{[moe](T)[sp].[moe](G)p.[moe]([m5C])p.[moe](T)p.[moe]([m5C])p.[moe](A)p.d(T)[sp].d(T)[sp].d(T)[sp].d(A)[sp].d(T)[sp].d(T)[sp].d([m5C])[sp].d(T)[sp].d([m5C])[sp].d(A)[sp].[moe](A)p.[moe](G)[sp].[moe](T)}$$$$ (last 3' nucleoside missing)”: the 3 h FOB score was 0 score 0-7.

“RNA1{[moe](T)[sp].[moe](G)p.[moe]([m5C])p.[moe](T)p.[moe]([m5C])p.d(A)[sp].d(T)[sp].d(T)[sp].d(T)[sp].d(A)[sp].d(T)[sp].d(T)[sp].d([m5C])[sp].d(T)[sp].d([m5C])[sp].[moe](A)p.[moe](A)p.[moe](G)[sp].[moe](T)}$$$$ (last 3' nucleoside missing)” yielded a 3 h FOB score of 1 score 0-7.

Substance “RNA1{[moe](T)[sp].[moe](T)p.[moe](T)p.[moe]([m5C])p.[moe](A)p.d(T)[sp].d(G)[sp].d(T)[sp].d(T)[sp].d([m5C])[sp].d([m5C])[sp].d(A)[sp].d(G)[sp].d(A)[sp].d(T)[sp].[moe]([m5C])p.[moe](A)p.[moe]([m5C])[sp].[moe]([m5C])}$$$$ (last 3' nucleoside missing)” yielded a 3 h FOB score of 1 score 0-7.

On to “RNA1{[moe](T)[sp].[moe]([m5C])p.[moe](A)[sp].[moe]([m5C])[sp].[moe](A)[sp].d(A)[sp].d(T)[sp].d(G)[sp].d(A)[sp].d([m5C])[sp].d([m5C])[sp].d([m5C])[sp].d(T)[sp].d(T)[sp].d(T)[sp].[moe](T)[sp].[moe]([m5C])p.[moe](T)[sp].[moe](T)}$$$$ (last 3' nucleoside missing)”, for which the 3 h FOB score was 1.25 score 0-7.

Substance “RNA1{[moe]([m5C])[sp].[moe](A)p.[moe](A)p.[moe](T)p.[moe](A)[sp].d(T)[sp].d(T)[sp].d(T)[sp].d(A)[sp].d(T)[sp].d(A)[sp].d(G)[sp].d(G)[sp].d(T)[sp].d(G)[sp].[moe]([m5C])p.[moe](T)p.[moe](G)[sp].[moe]([m5C])}$$$$ (last 3' nucleoside missing)” registered a 3 h FOB score of 4.5 score 0-7.

Substance “RNA1{[moe]([m5C])[sp].[moe](A)p.[moe](A)p.[moe](T)p.[moe](A)p.d(T)[sp].d(T)[sp].d(T)[sp].d(A)[sp].d(T)[sp].d(A)[sp].d(G)[sp].d(G)[sp].d(T)[sp].d(G)[sp].[moe]([m5C])p.[moe](T)p.[moe](G)[sp].[moe]([m5C])}$$$$ (last 3' nucleoside missing)” gave a 3 h FOB score of 4 score 0-7.

Regarding “RNA1{[moe]([m5C])[sp].[moe](A)p.[moe](G)p.[moe]([m5C])p.[moe](A)p.[moe]([m5C])p.d([m5C])[sp].d(A)[sp].d(T)[sp].d(A)[sp].d(T)[sp].d(A)[sp].d(T)[sp].d(A)[sp].d(T)[sp].d([m5C])[sp].[moe](T)p.[moe]([m5C])[sp].[moe](A)}$$$$ (last 3' nucleoside missing)”, the 3 h FOB score was 0.625 score 0-7.

The substance “RNA1{[moe]([m5C])[sp].[moe](A)p.[moe]([m5C])p.[moe](A)p.[moe]([m5C])[sp].d(T)[sp].d(T)[sp].d(T)[sp].d([m5C])[sp].d([m5C])[sp].d(T)[sp].d([m5C])[sp].d([m5C])[sp].d(T)[sp].d([m5C])[sp].[moe](A)p.[moe](A)p.[moe](T)[sp].[moe]([m5C])}$$$$ (last 3' nucleoside missing)” registered a 3 h FOB score of 0 score 0-7.

The substance “RNA1{[moe]([m5C])[sp].[moe](A)p.[moe]([m5C])p.[moe]([m5C])p.[moe](A)[sp].d(T)[sp].d([m5C])[sp].d(T)[sp].d(T)[sp].d(T)[sp].d(G)[sp].d(A)[sp].d([m5C])[sp].d(A)[sp].d(A)[sp].[moe](G)p.[moe]([m5C])p.[moe](T)[sp].[moe](A)}$$$$ (last 3' nucleoside missing)” gave a 3 h FOB score of 1.25 score 0-7.

Substance “RNA1{[moe]([m5C])[sp].[moe](T)p.[moe](G)p.[moe](G)p.[moe](T)[sp].d([m5C])[sp].d(A)[sp].d(G)[sp].d(T)[sp].d(T)[sp].d(T)[sp].d([m5C])[sp].d([m5C])[sp].d(T)[sp].d(A)[sp].[moe](A)p.[moe](T)p.[moe](T)[sp].[moe](T)}$$$$ (last 3' nucleoside missing)” yielded a 3 h FOB score of 0 score 0-7.

Turning to “RNA1{[moe]([m5C])[sp].[moe](T)p.[moe](G)p.[moe](T)p.[moe](A)[sp].d([m5C])[sp].d(A)[sp].d([m5C])[sp].d(T)[sp].d(T)[sp].d(T)[sp].d(T)[sp].d(A)[sp].d([m5C])[sp].d(A)[sp].[moe](T)p.[moe](T)p.[moe]([m5C])[sp].[moe]([m5C])}$$$$ (last 3' nucleoside missing)”, the 3 h FOB score stood at 1 score 0-7.

Substance “RNA1{[moe]([m5C])[sp].[moe](T)p.[moe](G)p.[moe]([m5C])p.[moe](A)[sp].d([m5C])[sp].d(A)[sp].d([m5C])[sp].d(T)[sp].d(T)[sp].d(T)[sp].d([m5C])[sp].d([m5C])[sp].d(T)[sp].d([m5C])[sp].[moe]([m5C])p.[moe](T)p.[moe]([m5C])[sp].[moe](A)}$$$$ (last 3' nucleoside missing)” registered a 3 h FOB score of 0 score 0-7.

As to “RNA1{[moe]([m5C])[sp].[moe]([m5C])p.[moe](A)p.[moe](A)p.[moe](T)[sp].d(A)[sp].d(T)[sp].d(T)[sp].d(T)[sp].d(A)[sp].d(T)[sp].d(A)[sp].d(G)[sp].d(G)[sp].d(T)[sp].[moe](G)p.[moe]([m5C])p.[moe](T)[sp].[moe](G)}$$$$ (last 3' nucleoside missing)”, the 3 h FOB score is 3.5 score 0-7.

On to “RNA1{[moe]([m5C])[sp].[moe]([m5C])p.[moe](A)p.[moe](A)p.[moe](T)p.d(A)[sp].d(T)[sp].d(T)[sp].d(T)[sp].d(A)[sp].d(T)[sp].d(A)[sp].d(G)[sp].d(G)[sp].d(T)[sp].[moe](G)p.[moe]([m5C])p.[moe](T)[sp].[moe](G)}$$$$ (last 3' nucleoside missing)”, for which the 3 h FOB score was 1.75 score 0-7.

“RNA1{[moe]([m5C])[sp].[moe]([m5C])p.[moe]([m5C])p.[moe](A)p.[moe](A)[sp].d(T)[sp].d(A)[sp].d(A)[sp].d(T)[sp].d([m5C])[sp].d(T)[sp].d(G)[sp].d(A)[sp].d([m5C])[sp].d(A)[sp].[moe](T)p.[moe]([m5C])p.[moe]([m5C])[sp].[moe](T)}$$$$ (last 3' nucleoside missing)” yielded a 3 h FOB score of 1.5 score 0-7.
